Assay results reported in patent US20230114728A1 (Venatorx Pharmaceuticals, Inc., priority 2019, published 2023).
≈ marks a conversion by molar mass, not a printed value. Read-outs that look alike come from different tables or passages of the source.

Experiments:
E. coli AG100A = assay: Broth microdilution MIC in CAMHB; type: cell-based; details: Escherichia coli, read-out: Minimum Inhibitory Concentration, E. coli AG100A
Experimental: (§1) Example III: In Vitro Antibacterial Assays
(§2) To determine the ability of test compounds to inhibit the growth of bacterial strains, classic cell based broth microdilution minimum inhibitory concentration (MIC) assays were employed. MIC assays are performed according to CLSI methods except where otherwise noted (CLSI, 2018 and CLSI, 2019). The reference type strain E. coli ATCC 25922; the wild-type parent strain E. coli AG100; the hyper-permeable E. coli 901C and E. coli D22; and the E. coli AG100A strain lacking the acrAB efflux pump encoding genes were used to determine the ability of the PBP inhibitors to penetrate the outer membrane of gram-negative bacteria and inhibit bacterial growth. […] The P. aeruginosa ATCC 27853 and A. baumannii ATCC 19606, along with the hyper-permeable P. aeruginosa ATCC 35151 and an engineered efflux pump-compromised strain of P. aeruginosa (ΔmexAB-oprM) were used to determine the ability of PBP inhibitors to penetrate the outer membrane of P. aeruginosa and A. baumannii and assess antibacterial activity against these important gram-negative organisms.
(§3) Briefly, cryo-preserved bacterial cultures of challenge strains are streaked for isolation on appropriate agar medium, in this case cation-adjusted Mueller Hinton agar. Following incubation to allow growth of the colonies, plates are sealed with parafilm and stored refrigerated for up to two weeks. For preparation of assay inoculum and to ensure low variability, at least 5 colonies are picked from the agar plates with an inoculating loop and aseptically transferred to a culture tube containing 3 mL of cation-adjusted Mueller Hinton broth (CAMHB). The broth culture is grown for 3-5 hours at 37° C. with shaking at 200 rpm. Meanwhile, 2-fold serial dilutions of test compounds are conducted in a 96-well plate with a final volume of 75 μL per well at 2-fold the final desired concentration. After the dilution plates are set up the growing cultures are then diluted in a cuvette containing CAMHB and the optical density is measured at 600 nm. The inoculum is diluted such that 75 μL of this culture in CAMHB results in a starting bacterial concentration of 2-8×10^5 CFU/mL when added to the dilution plates. The plates are incubated for 16-20 hours for Enterobacteriaceae and Pseudomonas and 20-24 hours for Acinetobacter at 37° C. The MIC values are read visually as the lowest concentration well with no bacterial growth.

E. coli 901C = assay: Broth microdilution MIC in CAMHB; type: cell-based; details: Escherichia coli, MHB, read-out: Minimum Inhibitory Concentration, E. coli 901C
Experimental: as §1, §2, §3

E. coli D22 = assay: Broth microdilution MIC in CAMHB; type: cell-based; details: Escherichia coli, MHB, read-out: Minimum Inhibitory Concentration, E. coli D22
Experimental: as §1, §2, §3

[1] = test system: K. pneumoniae SI-117 producing VIM-1; assay: Broth microdilution MIC in CAMHB; type: cell-based; details: Klebsiella pneumoniae, read-out: Minimum Inhibitory Concentration, K. pneumoniae SI-117
Experimental: as §1, §2, §3

P. aeruginosa ATCC 27853 = assay: Broth microdilution MIC in CAMHB; type: cell-based; details: Pseudomonas aeruginosa, ATCC27853; MHB; read-out: Minimum Inhibitory Concentration, P. aeruginosa ATCC 27853
Experimental: as §1, §2, §3

[2] = test system: K. pneumoniae 848844 producing SHV-11 and KPC-2; assay: Broth microdilution MIC in CAMHB; type: cell-based; details: Klebsiella pneumoniae, read-out: Minimum Inhibitory Concentration, K. pneumoniae 848844
Experimental: as §1, §2, §3

[3] = test system: K. pneumoniae UMM producing SHV-5 and KPC-2; assay: Broth microdilution MIC in CAMHB; type: cell-based; details: Klebsiella pneumoniae, read-out: Minimum Inhibitory Concentration, K. pneumoniae UMM
Experimental: as §1, §2, §3

P. aeruginosa ATCC 35151 = assay: Broth microdilution MIC in CAMHB; type: cell-based; details: Pseudomonas aeruginosa, ATCC35151; MHB; hyper-permeable strain; read-out: Minimum Inhibitory Concentration, P. aeruginosa ATCC 35151
Experimental: as §1, §2, §3

A. baumannii ATCC 19606 = assay: Broth microdilution MIC in CAMHB; type: cell-based; details: Acinetobacter baumannii, ATCC19606; MHB; read-out: Minimum Inhibitory Concentration, A. baumannii ATCC 19606
Experimental: as §1, §2, §3

E. coli ATCC 25922 = assay: Broth microdilution MIC in CAMHB; type: cell-based
Experimental: as §1, §2, §3

E. coli AG100 = assay: Broth microdilution MIC in CAMHB; type: cell-based; details: Escherichia coli, MHB, read-out: Minimum Inhibitory Concentration, E. coli AG100
Experimental: as §1, §2, §3

[4] = test system: P. aeruginosa (ΔmexAB-oprM); assay: Broth microdilution MIC in CAMHB; type: cell-based; details: Pseudomonas aeruginosa, read-out: Minimum Inhibitory Concentration, P. aeruginosa ΔmexAB-OprM
Experimental: as §1, §2, §3

P. aeruginosa PBP3 = molecular target: T1, P. aeruginosa PBP3 (Pseudomonas aeruginosa, UniProt G3XD46); assay: Bocillin-FL fluorescence polarization competition binding assay, P. aeruginosa PBP3; details: P. aeruginosa PBP3; assay validation with beta-lactams; read-out: EC50 (concentration of beta-lactam required to reduce the amount of PBP bound-Bocillin-FL by 50%)
T1 construct: made in house
T1 sequence (G3XD46 whole entry): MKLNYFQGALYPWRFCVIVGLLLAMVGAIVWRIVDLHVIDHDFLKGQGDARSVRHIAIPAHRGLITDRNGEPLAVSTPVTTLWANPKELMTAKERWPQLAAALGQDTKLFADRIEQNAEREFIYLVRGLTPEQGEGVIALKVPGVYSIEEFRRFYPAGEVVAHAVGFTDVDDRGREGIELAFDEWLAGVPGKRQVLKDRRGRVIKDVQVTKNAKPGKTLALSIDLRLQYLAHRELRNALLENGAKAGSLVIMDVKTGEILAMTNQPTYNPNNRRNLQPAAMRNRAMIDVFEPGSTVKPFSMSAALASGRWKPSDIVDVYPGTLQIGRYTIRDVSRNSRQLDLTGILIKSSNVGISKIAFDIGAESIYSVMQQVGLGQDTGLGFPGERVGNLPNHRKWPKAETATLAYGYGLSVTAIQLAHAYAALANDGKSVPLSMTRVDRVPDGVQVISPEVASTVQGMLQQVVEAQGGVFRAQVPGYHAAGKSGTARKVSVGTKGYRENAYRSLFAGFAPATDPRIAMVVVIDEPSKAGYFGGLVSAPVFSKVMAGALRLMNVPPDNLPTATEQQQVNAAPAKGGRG
Excerpt: Example I: Experimental Method for Penicillin-Binding Protein Binding Assays with Bocillin-FL Via Fluorescence Polarization
To determine the ability of boronic acid-based test PBP inhibitors to bind Penicillin Binding Proteins (PBPs), Bocillin-FL (fluorescently-labeled penicillin V; ThermoFisher Scientific) was used in a fluorescence polarization (FP) competition binding assay to assess inhibitor binding to PBP2, PBP3 or PBP4 from Escherichia coli (K12), PBP3 from Pseudomonas aeruginosa (PA01), PBP1a, PBP2 and PBP3 from Acinetobacter baumannii (ATCC 19606), and PBP2 from Neiserria gonorrheae (FA19). PBPs were cloned and purified as described previously (E. coli PBPs, King, D. T, et al., ACS Infectious Diseases 2015, 1, 175-184; P. aeruginosa PBP3, Han et. al., PNAS 2010, 107 (51), 22002-22007; A. baumannii PBPs, Penwell et. al., Antimicrob. Agents Chemother. 2015, 59 (3), 1680-1689; N. gonorrhoeae PBP2, Singh et. al., J Biol. Chem. 2019, 294 (38), 14020-14032). To establish assay conditions for competition binding, enzyme titration/saturation binding experiments were initially performed. Bocillin-FL was prepared at 0.2 μM in a buffer comprised of 50 mM Hepes (pH 8.0), 300 mM NaCl and 5% (v/v) glycerol for reactions with E. coli, P. aeruginosa and N. gonorrhoeae PBPs, and 25 mM Tris (pH 8.0), 200 mM NaCl and 10% (v/v) glycerol and 0.005% (v/v) Tween 20 for reactions with A. baumannii PBPs. Saturation binding was performed by mixing 40 μl of PBP solutions ranging in concentrations from 0-24 μM with 40 μl of the 0.2 μM Bocillin-FL solution, in individual wells of a black 384-well microplate. FP was measured immediately upon mixing (Excitation, 490 nm; Emission, 520 nm; g-factor, 0.96), using a Cytation3 (BioTek) microplate reader and measured continuously for up to 120 minutes. […] The competition binding assay (80 μl final volume) was validated using beta-lactams and PBPs at final concentrations of: 1.5 μM, E. coli PBP3; 0.75 μM, P. aeruginosa PBP3; 1 μM A. baumannii PBP1a; 2.5 μM A. baumannii PBP2; 0.2 μM A. baumannii PBP3; and […] N. gonorrhoeae PBP2. Bocillin-FL was at 0.1 μM (0.05 μM with A. baumannii PBP1a) and beta-lactam concentrations ranged from 0-1000 μM. […] Bocillin-FL was added and the FP immediately measured for up to 60 minutes (90 minutes for E. coli PBP2). […] The beta-lactam potency was reported as the concentration of beta-lactam required to reduce the amount of PBP bound-Bocillin-FL by 50% (EC50). […] Binding assays for boronic acid PBP inhibitors were performed in an identical fashion for the respective PBPs

[5] = Escherichia coli, ATCC25922; MHB; E. coli ATCC 25922; read-out: Minimum Inhibitory Concentration, E. coli 25922
[6] = wild-type parent strain E. coli AG100

SMILES | MIC (E. coli AG100A) | MIC (E. coli 901C; hyper-permeable E. coli 901C) | MIC (E. coli D22; hyper-permeable E. coli D22) | MIC [1] | MIC (P. aeruginosa ATCC 27853) | MIC [2] | MIC [3] | MIC (P. aeruginosa ATCC 35151) | MIC (A. baumannii ATCC 19606) | MIC (E. coli ATCC 25922; [5]) | MIC (E. coli AG100; [6]) | MIC [4] | MIC (E. coli 901C; E. coli 901C (hyper-permeable)) | MIC (E. coli D22; E. coli D22 (hyper-permeable)) | MIC (E. coli ATCC 25922; Escherichia coli, ATCC25922; E. coli ATCC 25922; MHB; read-out: Minimum Inhibitory Concentration, E. coli 25922) | MIC (E. coli AG100; E. coli AG100 (wild-type parent)) | EC50 (P. aeruginosa PBP3)
NCCN1CCN(C(=O)N[C@H](C(=O)N[C@H]2Cc3cccc(C(=O)O)c3OB2O)c2c(Cl)cccc2Cl)C(=O)C1=O (single isomer, unassigned) [Example 225] | > 128 mg/L | > 128 mg/L | > 128 mg/L | > 128 mg/L | > 128 mg/L | > 128 mg/L | 32 to 64 mg/L (≈ 54 to 108 µM) | > 128 mg/L | > 128 mg/L | > 128 mg/L | > 128 mg/L | > 128 mg/L |  |  |  |  | 
NC1(CN2CCN(C(=O)N[C@@H](C(=O)N[C@H]3Cc4cccc(C(=O)O)c4OB3O)c3cc(F)c(O)c(F)c3F)C(=O)C2=O)CC1 (single isomer, unassigned) [Example 244] | 32 to 64 mg/L (≈ 51.7 to 103 µM) | > 128 mg/L | 32 to 64 mg/L (≈ 51.7 to 103 µM) | 2 to 4 mg/L (≈ 3.23 to 6.46 µM) | 32 to 64 mg/L (≈ 51.7 to 103 µM) | 32 to 64 mg/L (≈ 51.7 to 103 µM) | < 0.25 mg/L | < 0.25 mg/L | > 128 mg/L | 8 to 16 mg/L (≈ 12.9 to 25.8 µM) | > 128 mg/L | 2 to 4 mg/L (≈ 3.23 to 6.46 µM) |  |  |  |  | 
NC1(CN2CCN(C(=O)NC(C(=O)N[C@H]3Cc4cccc(C(=O)O)c4OB3O)c3cc(F)c(O)c(F)c3F)C(=O)C2=O)CC1 (single isomer, unassigned) [Example 245] | > 128 mg/L | > 128 mg/L | > 128 mg/L | 8 to 16 mg/L (≈ 12.9 to 25.8 µM) | > 128 mg/L | > 128 mg/L | 2 to 4 mg/L (≈ 3.23 to 6.46 µM) | 0.5 to 1 mg/L (≈ 0.807 to 1.61 µM) | > 128 mg/L | > 128 mg/L | > 128 mg/L | 8 to 16 mg/L (≈ 12.9 to 25.8 µM) |  |  |  |  | 
NCCCN1CCN(C(=O)N[C@@H](C(=O)N[C@H]2Cc3cccc(C(=O)O)c3OB2O)c2cc(F)c(O)c(F)c2F)C(=O)C1=O (single isomer, unassigned) [Example 246] | > 128 mg/L | > 128 mg/L | 32 to 64 mg/L (≈ 52.7 to 105 µM) | 8 to 16 mg/L (≈ 13.2 to 26.3 µM) | > 128 mg/L | > 128 mg/L | 2 to 4 mg/L (≈ 3.29 to 6.59 µM) | 0.5 to 1 mg/L (≈ 0.823 to 1.65 µM) | > 128 mg/L | 32 to 64 mg/L (≈ 52.7 to 105 µM) | > 128 mg/L | 8 to 16 mg/L (≈ 13.2 to 26.3 µM) |  |  |  |  | 
NCCCN1CCN(C(=O)N[C@H](C(=O)N[C@H]2Cc3cccc(C(=O)O)c3OB2O)c2cc(F)c(O)c(F)c2F)C(=O)C1=O (single isomer, unassigned) [Example 247] |  |  |  |  | 8 to 16 mg/L (≈ 13.2 to 26.3 µM) |  |  | < 0.25 mg/L | > 128 mg/L |  |  | 2 to 4 mg/L (≈ 3.29 to 6.59 µM) |  |  |  |  | 
CCN1CCN(C(=O)NC(C(=O)N[C@H]2Cc3cccc(C(=O)O)c3OB2O)c2ccc(C(=O)O)c([N+](=O)[O-])c2)C(=O)C1=O (stereo partly drawn) [Example 220, (3R)-3-(2-(4-carboxy-3-nitrophenyl)-2-(4-ethyl-2,3-dioxopiperazine-1-carboxamido)acetamido)-2-hydroxy-3,4-dihydro-2H-benzo[e][1,2]oxaborinine-8-carboxylic acid] | 32 to 64 mg/L (≈ 53.6 to 107 µM) |  |  | 2 to 4 mg/L (≈ 3.35 to 6.7 µM) | > 128 mg/L | 32 to 64 mg/L (≈ 53.6 to 107 µM) | < 0.25 mg/L | 0.5 to 1 mg/L (≈ 0.837 to 1.67 µM) | > 128 mg/L |  |  | 8 to 16 mg/L (≈ 13.4 to 26.8 µM) | > 128 mg/L | 32 to 64 mg/L (≈ 53.6 to 107 µM) | > 128 mg/L | > 128 mg/L | 
C[C@H]1CN(CCF)C(=O)C(=O)N1C(=O)N[C@@H](C(=O)N[C@H]1Cc2cccc(C(=O)O)c2OB1O)c1ccc(O)c(F)c1F [Example 241, (3R)-3-(2-(2,3-difluoro-4-hydroxyphenyl)-2-((S)-4-(2-fluoroethyl)-6-methyl-2,3-dioxopiperazine-1-carboxamido)acetamido)-2-hydroxy-3,4-dihydro-2H-benzo[e][1,2]oxaborinine-8-carboxylic acid] | 32 to 64 mg/L (≈ 54 to 108 µM) | > 128 mg/L | 32 to 64 mg/L (≈ 54 to 108 µM) | 2 to 4 mg/L (≈ 3.38 to 6.75 µM) | > 128 mg/L | 32 to 64 mg/L (≈ 54 to 108 µM) | < 0.25 mg/L | 2 to 4 mg/L (≈ 3.38 to 6.75 µM) | > 128 mg/L | 8 to 16 mg/L (≈ 13.5 to 27 µM) | 32 to 64 mg/L (≈ 54 to 108 µM) | 2 to 4 mg/L (≈ 3.38 to 6.75 µM) |  |  |  |  | 
C[C@H]1[C@H](NC(=O)/C(=N\OC(C)(C)C(=O)O)c2csc(N)n2)C(=O)N1S(=O)(=O)O [aztreonam, reference compound] |  |  |  |  |  |  |  |  |  |  |  |  |  |  |  |  | < 0.5 µM
